Results taken from BigSolDB 2.1.

CN1C(C(=O)Nc2ccccn2)=C(O)c2sc(Cl)cc2S1(=O)=O
Conditions	solubility (mole fraction)
in PEG-400, 298.15 K	0.00855
in PEG-400, 303.15 K	0.0101
in PEG-400, 308.15 K	0.0114
in PEG-400, 313.15 K	0.0129
in PEG-400, 323.15 K	0.0169

solubility (mole fraction)
Conditions	in ethanol	in ethyl acetate	in ethylene glycol	in isopropanol	in n-butanol	in propylene glycol	in sec-butanol	in transcutol	in water
298.15 K	8.43e-06	8.39e-05	0.000224	9.05e-06	1.36e-05	3.17e-05	2.99e-05	0.000317	2.91e-06
303.15 K	1.16e-05	9.08e-05	0.000334	1.16e-05	1.55e-05	3.6e-05	3.59e-05	0.000382	4.12e-06
308.15 K	1.45e-05	9.86e-05	0.000474	1.45e-05	1.75e-05	4.05e-05	4.19e-05	0.000462	5.52e-06
313.15 K	1.98e-05	0.000107	0.000634	1.81e-05	1.99e-05	4.5e-05	4.78e-05	0.000552	7.27e-06
323.15 K	3.22e-05	0.000121	0.00108	2.67e-05	2.39e-05	5.4e-05	6.58e-05	0.000743	1.19e-05
